This is an account of results in patent US6979673B1, “Method and compositions for modulating somatolactogenic functions” (Trustees of the University of Pennsylvania, priority 1999, dated 2005).

For experiment [1], the system named is Nb2 cells. In words: PRL-driven proliferation of Nb2 cells (3H-thymidine). Format: cell-based, rat. The conditions noted are these: for enhancement of PRL-driven growth vs cultures that received only PRL: Nb2 cells, biphasic, most prominent at 5–10 mM CypB and 50 pM PRL. How it is done: (§1) The effect of exogenous CypB on PRL-driven proliferation was examined with the rat Nb2 T-cell and the human T47D breast cancer line. […] This dose-dependent biphasic effect was most prominent at physiologic concentrations ([…]) of CypB and PRL (50 pM) found in human serum. […] To determine the effect of CypB on cellular growth driven by the larger family of cytokines, to which PRL belongs, proliferation driven by interleukin-2 (IL-2), IL-3 and GH was examined.
(§2) Nb2-cells (5×10^4; PRL-dependent, rat T-lymphoma) were plated in each well of 96 well plates in a defined DMEM-serum free medium (0.1 mM 2-mercaptoethanol, 1% penicillin/streptomycin, and 1% ITS+ (Calbiochem)). Cells were rested for 24 hours at 37° C. in this defined medium in the absence of PRL before the addition of 5–500 pM PRL (either as human pituitary isolated PRL, National Hormone and Pituitary Program, NIDDK; recombinant human PRL from E. coli, Genzyme; or recombinant human PRL from Drosophila S2 cells) alone or premixed with 1–2000 fold excess of purified CypB. Parallel studies were performed using human pituitary-derived GH (National Hormone and Pituitary Program, NIDDK). Cultures were incubated for 48 hours at 37° C. and proliferation was evaluated by the addition of 0.5 μCi of ^3H-thymidine for four hours followed by harvesting and scintillography. When stimulated with PRL alone, Nb2 cells yield sigmoid shaped growth curves that plateau at approximately 2 ng PRL/ml.

The target in experiment [2] is T1, PRL (Homo sapiens, UniProt P01236).
T1 sequence (P01236 29-227): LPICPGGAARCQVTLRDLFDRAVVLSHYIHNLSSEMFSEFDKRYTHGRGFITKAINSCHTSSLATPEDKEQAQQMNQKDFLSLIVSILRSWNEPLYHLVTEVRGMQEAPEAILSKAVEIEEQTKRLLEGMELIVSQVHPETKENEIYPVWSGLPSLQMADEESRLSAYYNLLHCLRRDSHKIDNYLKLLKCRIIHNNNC
In words: Co-immunoprecipitation of admixed purified epitope-tagged proteins. The arrangement: Full length PRL cDNA was generated by PCR; made in house; host or cells: Drosophila S2 cells (pAc5/V5-HisA). Format: binding. The settings on record: reducing agent or divalent cation facilitated the interaction.

Experiment [3] relates to Nb2 cells. In words: GH-driven proliferation. The conditions noted are these: physiological concentrations of CypB. Format: cell-based, rat. How it is done: as §1
as §2, with “When stimulated with PRL alone, Nb2 cells yield sigmoid shaped growth curves that plateau at approximately 2 ng PRL/ml.” left out

Experiment [4] deals with IL-2-driven proliferation. In words: IL-2-driven proliferation. The class given is cell-based. The conditions noted are these: varying concentration of CypB. How it is done: as §1
Experiment [5] relates to IL-3-driven proliferation. In words: IL-3-driven proliferation. Format: cell-based. The settings on record: varying concentration of CypB. On the procedure: as §1
The subject of experiment [6] is T47D human breast cancer cells. In words: Nuclear retrotranslocation of PRL, anti-PRL indirect immunofluorescence. The class given is cell-based. The conditions noted are these: added to defined T47D culture medium; CypB added to EGF-containing medium. On the procedure: Experiments were performed to examine the ability of CypB to enhance nuclear retrotranslocation of PRL, and thereby PRL-driven proliferation.
The role of this sequence in the CypB-mediated retrotranslocation of PRL, and its associated enhancement of growth was tested by mutagenic approaches. The putative nuclear localization sequence of CypB was deleted in the mutant CypB-NT.

Experiment [7] concerns the target T1, PRL. In words: Co-immunoprecipitation of PRL with CypB from human serum. Format: binding.

Take “CypA: recombinant form of the highly homologous cyclophilin family member CypA [reference compound]”: in experiment [1], the “enhancement of PRL-driven growth vs cultures that received only PRL” value is given as “did not result in any potentiation”. Besides, the “direct interaction with PRL (co-immunoprecipitation)” value in experiment [2] is on record as “failed to interact”.
On to “CypB: cyclophilin B, peptidyl prolyl isomerase, GenBank NM 000942, SEQ ID NO: 1; recombinant His-tagged”, for which the “enhancement of PRL-driven growth vs cultures that received only PRL” value in experiment [1] is “eight-fold”. Also, the “enhancement of PRL-induced proliferation” value in experiment [1] (cell line not given) is listed as “failed to enhance”. In addition, the “enhancement of GH-driven proliferation vs GH alone” value in experiment [3] is recorded as “forty-fold”. Also, the “effect on IL-2-driven proliferation” value in experiment [4] is “Neither IL-2- nor IL-3-driven proliferation was altered”. In addition, the “effect on IL-3-driven proliferation” value in experiment [5] was “Neither IL-2- nor IL-3-driven proliferation was altered”. For the same substance, in experiment [6], the “T47D nuclei exhibiting anti-PRL immunofluorescence” value is listed as 95–100%. Also, in experiment [7], the “co-immunoprecipitation of PRL from human serum” value is on record as “direct co-immunoprecipitation of PRL with CypB from human serum”. In addition, the “direct interaction with PRL (co-immunoprecipitation)” value in experiment [2] is “interact directly”.
